Data on 24 compounds can be found in patent publication US12037322B2, “AHR agonists” (Eli Lilly and Company, priority 2021, dated 2024).

Structures are written as SMILES.

The assay addresses T1, hAHR (Homo sapiens, UniProt P35869).
T1 construct: expressed in transfected cells
T1 sequence (P35869 11-848): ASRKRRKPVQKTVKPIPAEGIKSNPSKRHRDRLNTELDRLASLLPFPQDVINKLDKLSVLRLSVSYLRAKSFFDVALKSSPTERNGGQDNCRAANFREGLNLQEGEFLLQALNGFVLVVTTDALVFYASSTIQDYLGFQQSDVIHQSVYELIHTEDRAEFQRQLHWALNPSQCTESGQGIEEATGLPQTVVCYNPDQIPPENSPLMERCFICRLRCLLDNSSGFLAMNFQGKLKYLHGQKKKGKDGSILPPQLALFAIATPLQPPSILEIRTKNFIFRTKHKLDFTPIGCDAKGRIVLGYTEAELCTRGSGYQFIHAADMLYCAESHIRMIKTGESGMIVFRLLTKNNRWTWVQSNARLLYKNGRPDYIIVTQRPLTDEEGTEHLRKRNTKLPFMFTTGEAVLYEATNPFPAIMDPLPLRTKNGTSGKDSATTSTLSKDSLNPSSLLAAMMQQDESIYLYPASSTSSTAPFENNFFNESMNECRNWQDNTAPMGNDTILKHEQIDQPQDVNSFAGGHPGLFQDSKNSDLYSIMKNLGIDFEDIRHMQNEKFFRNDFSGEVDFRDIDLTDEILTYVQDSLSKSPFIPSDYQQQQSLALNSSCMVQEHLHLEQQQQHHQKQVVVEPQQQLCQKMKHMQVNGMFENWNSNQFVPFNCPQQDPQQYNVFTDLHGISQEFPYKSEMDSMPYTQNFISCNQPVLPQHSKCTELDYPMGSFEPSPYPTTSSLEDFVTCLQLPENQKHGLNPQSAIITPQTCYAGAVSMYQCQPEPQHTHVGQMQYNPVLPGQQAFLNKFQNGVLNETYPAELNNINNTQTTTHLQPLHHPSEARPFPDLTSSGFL
The assay can be described thus: hAHR nuclear translocation assay. The assay is classed as cell-based. To be noted: Jump-In T-REx HEK293 cells expressing AhR-EGFP; 45 min incubation; ratio of EGFP intensity in nuclear over cytosol; 20-point curve. The method, then:
Stable cell lines were established using Jump-In™ T-REx™ HEK293 Retargeting Kit (Life Technologies). hAhR cDNA was cloned into the pJTI R4 CMV-TO EGFP vector. The EGFP was cloned to the C-terminal of AHR to form AhR-EGFP chimera. The pJTI R4 CMV-TO AhR-EGFP vector was transfected using FuGENE® HD into Jump-In™ T-REx™ HEK293 cells. Transfected cells were selected using 2.5 mg/ml G418 for 10 to 14 days, then expanded, harvested, and suspended in freeze media (FBS with 8% DMSO) at 2×10^7 cells/mL, and aliquots were stored in liquid nitrogen. One day before the assay date, cells were thawed and resuspended in DMEM with 5% FBS in the presence of 1 μg/mL Doxycycline and plated into ploy-L-Lysine coated […]-384 ULTRA Microplates (Perkin Elmer) at 12,000 to 15,000 cells per well and incubated at 37° C. and 5% CO2 overnight. On the assay date, compound was serially diluted (1:2) into 384-well nunc plates with DMSO using acoustic dispensing (ECHO). The dose response was a 20-point curve. Compound was resuspended in 40 μL of DMEM plus 0.1% BSA. The culture media was damped and 25 μL of DMEM plus 0.1% BSA was added, then 25 μL of compound in DMEM plus 0.1% BSA was added into cell plates. Cells were incubated with compounds at 37° C. and 5% CO2 for 45 min.
The final DMSO concentration was 0.2%. The media was damped after 45 minutes incubation. The cells were fixed with 40 μL of cold MeOH (−20° C.) for 20 min. The MeOH was damped and 50 μL of DPBS containing 1 μg/mL Hochst was added into the cell plates. The intensity of EGFP was quantitated by using OPERA PHENIX® or Operetta™ high content image system (Perkin Elmer) with 20× Water Objective and five field per well. The ratio of EGFP fluorescent intensity in nuclear over cytosol was analyzed using a 4-parameter nonlinear logistic equation to determine the potency of AhR agonists.

`CC1Cc2c(O)c(C(=O)Nc3ccccn3)c(=O)n(C)c2C1` (single isomer, unassigned) [Example 88, 4-Hydroxy-1,6-dimethyl-2-oxo-N-(2-pyridyl)-6,7-dihydro-5H-cyclopenta[b]pyridine-3-carboxamide]: the concentration for a half-maximal effect (EC50) was determined as 0.897 nM. In the case of `CC1CCc2c1c(O)c(C(=O)Nc1ccccn1)c(=O)n2C` (single isomer, unassigned) [Example 89, 4-Hydroxy-1,5-dimethyl-2-oxo-N-(2-pyridyl)-6,7-dihydro-5H-cyclopenta[b]pyridine-3-carboxamide], the EC50 was determined as 2.33 nM. With `CC1CCc2c1c(O)c(C(=O)Nc1ccccn1)c(=O)n2C` (single isomer, unassigned) [Example 90, 4-Hydroxy-1,5-dimethyl-2-oxo-N-(2-pyridyl)-6,7-dihydro-5H-cyclopenta[b]pyridine-3-carboxamide] the figure was 2.89 nM; with `CC1CCc2c1c(O)c(C(=O)Nc1ncccc1F)c(=O)n2C` (single isomer, unassigned) [Example 91, N-(3-Fluoro-2-pyridyl)-4-hydroxy-1,5-dimethyl-2-oxo-6,7-dihydro-5H-cyclopenta[b]pyridine-3-carboxamide], 4.86 nM.

With `CC1CCc2c1c(O)c(C(=O)Nc1ncccc1F)c(=O)n2C` (single isomer, unassigned) [Example 92, N-(3-Fluoro-2-pyridyl)-4-hydroxy-1,5-dimethyl-2-oxo-6,7-dihydro-5H-cyclopenta[b]pyridine-3-carboxamide], the EC50 came out at 1.44 nM. For the compound `CC1CCc2c1c(O)c(C(=O)Nc1ncc(Cl)cn1)c(=O)n2C` (single isomer, unassigned) [Example 93, N-(5-Chloropyrimidin-2-yl)-4-hydroxy-1,5-dimethyl-2-oxo-6,7-dihydro-5H-cyclopenta[b]pyridine-3-carboxamide], the EC50 is 1.06 nM. To `CC1CCc2c1c(O)c(C(=O)Nc1ncc(Cl)cn1)c(=O)n2C` (single isomer, unassigned) [Example 94, N-(5-Chloropyrimidin-2-yl)-4-hydroxy-1,5-dimethyl-2-oxo-6,7-dihydro-5H-cyclopenta[b]pyridine-3-carboxamide] belongs 0.533 nM; to `CC1CCc2c1c(O)c(C(=O)Nc1ncc(F)cn1)c(=O)n2C` (single isomer, unassigned) [Example 95, N-(5-Fluoropyrimidin-2-yl)-4-hydroxy-1,5-dimethyl-2-oxo-6,7-dihydro-5H-cyclopenta[b]pyridine-3-carboxamide], 1.21 nM. Turning to `CC1CCc2c1c(O)c(C(=O)Nc1ncc(F)cn1)c(=O)n2C` (single isomer, unassigned) [Example 96, N-(5-Fluoropyrimidin-2-yl)-4-hydroxy-1,5-dimethyl-2-oxo-6,7-dihydro-5H-cyclopenta[b]pyridine-3-carboxamide], the EC50 was determined as 0.6 nM. For `CC1CCc2c1c(O)c(C(=O)Nc1ncc(C(F)(F)F)cn1)c(=O)n2C` (single isomer, unassigned) [Example 97, 4-Hydroxy-1,5-dimethyl-2-oxo-N-[5-(trifluoromethyl)pyrimidin-2-yl]-6,7-dihydro-5H-cyclopenta[b]pyridine-3-carboxamide], the 50% effective concentration (EC50) was 0.709 nM. Turning to `CC1CCc2c1c(O)c(C(=O)Nc1ncc(C(F)(F)F)cn1)c(=O)n2C` (single isomer, unassigned) [Example 98, 4-Hydroxy-1,5-dimethyl-2-oxo-N-[5-(trifluoromethyl)pyrimidin-2-yl]-6,7-dihydro-5H-cyclopenta[b]pyridine-3-carboxamide], the EC50 was 0.342 nM.

With `CC1CCc2c1c(O)c(C(=O)Nc1ccc(F)cn1)c(=O)n2C` (single isomer, unassigned) [Example 99, N-(5-Fluoro-2-pyridyl)-4-hydroxy-1,5-dimethyl-2-oxo-6,7-dihydro-5H-cyclopenta[b]pyridine-3-carboxamide], the EC50 was 2.12 nM.

`CC1CCc2c1c(O)c(C(=O)Nc1ccc(F)cn1)c(=O)n2C` (single isomer, unassigned) [Example 100, N-(5-Fluoro-2-pyridyl)-4-hydroxy-1,5-dimethyl-2-oxo-6,7-dihydro-5H-cyclopenta[b]pyridine-3-carboxamide]: the 50% effective concentration (EC50) came to 2.17 nM. Consider `COc1cnc(NC(=O)c2c(O)c3c(n(C)c2=O)CCC3C)nc1` (single isomer, unassigned) [Example 101, 4-Hydroxy-N-(5-methoxypyrimidin-2-yl)-1,5-dimethyl-2-oxo-6,7-dihydro-5H-cyclopenta[b]pyridine-3-carboxamide], for which the EC50 was 6.01 nM. To `COc1cnc(NC(=O)c2c(O)c3c(n(C)c2=O)CCC3C)nc1` (single isomer, unassigned) [Example 102, 4-Hydroxy-N-(5-methoxypyrimidin-2-yl)-1,5-dimethyl-2-oxo-6,7-dihydro-5H-cyclopenta[b]pyridine-3-carboxamide] belongs 2.59 nM; to `CC(C)C1CCc2c1cc(C(=O)Nc1ncc(F)cn1)c(=O)n2C` (single isomer, unassigned) [Example 112, N-(5-fluoropyrimidin-2-yl)-5-isopropyl-1-methyl-2-oxo-6,7-dihydro-5H-cyclopenta[b]pyridine-3-carboxamide], 0.865 nM; to `CC(C)C1CCc2c1cc(C(=O)Nc1ncc(F)cn1)c(=O)n2C` (single isomer, unassigned) [Example 113, N-(5-fluoropyrimidin-2-yl)-5-isopropyl-1-methyl-2-oxo-6,7-dihydro-5H-cyclopenta[b]pyridine-3-carboxamide], 11.2 nM.

Take `CCC1CCc2c1cc(C(=O)Nc1ncc(F)cn1)c(=O)n2C` (single isomer, unassigned) [Example 114, 5-ethyl-N-(5-fluoropyrimidin-2-yl)-1-methyl-2-oxo-6,7-dihydro-5H-cyclopenta[b]pyridine-3-carboxamide]: the concentration for a half-maximal effect (EC50) came out at 2.44 nM. Consider `CCC1CCc2c1cc(C(=O)Nc1ncc(F)cn1)c(=O)n2C` (single isomer, unassigned) [Example 115, 5-ethyl-N-(5-fluoropyrimidin-2-yl)-1-methyl-2-oxo-6,7-dihydro-5H-cyclopenta[b]pyridine-3-carboxamide], for which the EC50 was 2.96 nM.

Take `CC1CCc2c1cc(C(=O)Nc1ncc(F)cn1)c(=O)n2C` (stereo not drawn) [Example 1, N-(5-Fluoropyrimidin-2-yl)-1,5-dimethyl-2-oxo-6,7-dihydro-5H-cyclopenta[b]pyridine-3-carboxamide]: the EC50 came out at 9.78 nM. Regarding `CC1CCc2c1cc(C(=O)Nc1ccc(F)cn1)c(=O)n2C` (stereo not drawn) [Example 2, N-(5-Fluoro-2-pyridyl)-1,5-dimethyl-2-oxo-6,7-dihydro-5H-cyclopenta[b]pyridine-3-carboxamide], the concentration giving a half-maximal response (EC50) came to 9.78 nM.

Consider `CC1CCc2c1cc(C(=O)Nc1ccc(C(F)(F)F)cn1)c(=O)n2C` (stereo not drawn) [Example 4, 1,5-Dimethyl-2-oxo-N-[5-(trifluoromethyl)-2-pyridyl]-6,7-dihydro-5H-cyclopenta[b]pyridine-3-carboxamide], for which the EC50 is 1.82 nM. With `CC1CCc2c1cc(C(=O)Nc1ncccc1F)c(=O)n2C` (stereo not drawn) [Example 5, N-(3-Fluoro-2-pyridyl)-1,5-dimethyl-2-oxo-6,7-dihydro-5H-cyclopenta[b]pyridine-3-carboxamide] the figure was 16.9 nM; with `CC1CCc2c1cc(C(=O)Nc1ccc(C(F)(F)F)nc1)c(=O)n2C` (stereo not drawn) [Example 6, 1,5-Dimethyl-2-oxo-N-[6-(trifluoromethyl)-3-pyridyl]-6,7-dihydro-5H-cyclopenta[b]pyridine-3-carboxamide], 4.57 nM.

One may read the EC50 as the concentration needed to bring the measured effect to its halfway point.
